Experimental data taken from ChEMBL document CHEMBL5724914, “Linking interpersonal differences in gut microbiota composition and drug biotransformation activity” (2024).

What was measured:
[1] = (§1) The drug is tested on Z-012 corresponding to metagenome with ENA study accession number: PRJEB37062 and ENA sample accession number: ERS12561812 for biotransformation under anaerobic condition. The drug concentrations were measured over 9 timepoints collected between 0 and 24 hours of incubation by liquid-chromatography-coupled mass spectrometry (LC–MS); conditions: 2 µM
[2] = human gut metagenome, 24 h, 2 µM
[3] = (§2) The drug is tested on Z-007 corresponding to rat gut metagenome with ENA study accession number: PRJEB37062 and ENA sample accession number: ERS12561807 for biotransformation under anaerobic condition. The drug concentrations were measured over 9 timepoints collected between 0 and 24 hours of incubation by liquid-chromatography-coupled mass spectrometry (LC–MS); conditions: 2 µM
[4] = as §2, with “on WLS-170” for “on Z-007”, “to human” for “to rat”, “number: ERS12561762” for “number: ERS12561807”; conditions: 2 µM
[5] = human gut metagenome, 24 h, 2 µM; remark: listed apart in the source
[6] = human gut metagenome, 24 h, 2 µM; remark: listed apart in the source
[7] = human gut metagenome, 24 h, 2 µM; remark: listed apart in the source
[8] = human gut metagenome, 24 h, 2 µM; remark: listed apart in the source
[9] = as §2, with “on Z-001” for “on Z-007”, “to mouse” for “to rat”, “number: ERS12561801” for “number: ERS12561807”; conditions: 2 µM
[10] = as §2, with “on WLS-027” for “on Z-007”, “to human” for “to rat”, “number: ERS12561744” for “number: ERS12561807”; conditions: 2 µM
[11] = human gut metagenome, 24 h, 2 µM; remark: listed apart in the source
[12] = as §1, with “Z-021” for “Z-012”, “ERS12561820” for “ERS12561812”; conditions: 2 µM
[13] = human gut metagenome, 24 h, 2 µM; remark: listed apart in the source
[14] = as §2, with “on Z-017” for “on Z-007”, “to mouse” for “to rat”, “number: ERS12561816” for “number: ERS12561807”; conditions: 2 µM
[15] = human gut metagenome, 24 h, 2 µM; remark: listed apart in the source
[16] = as §2, with “on WLS-350” for “on Z-007”, “to human” for “to rat”, “number: ERS12561789” for “number: ERS12561807”; conditions: 2 µM
[17] = as §2, with “on Z-002” for “on Z-007”, “to rabbit” for “to rat”, “number: ERS12561802” for “number: ERS12561807”; conditions: 2 µM
[18] = as §2, with “on WLS-052” for “on Z-007”, “to human” for “to rat”, “number: ERS12561747” for “number: ERS12561807”; conditions: 2 µM
[19] = human gut metagenome, 24 h, 2 µM; remark: listed apart in the source
[20] = human gut metagenome, 24 h, 2 µM; remark: listed apart in the source
Note: call rule not given here.

Row | Bacterial Biotransformation [1] | Bacterial Biotransformation [2] | Bacterial Biotransformation [3] | Bacterial Biotransformation [4] | Bacterial Biotransformation [5] | Bacterial Biotransformation [6] | Bacterial Biotransformation [7] | Bacterial Biotransformation [8] | Bacterial Biotransformation [9] | Bacterial Biotransformation [10] | Bacterial Biotransformation [11] | Bacterial Biotransformation [12] | Bacterial Biotransformation [13] | Bacterial Biotransformation [14] | Bacterial Biotransformation [15] | Bacterial Biotransformation [16] | Bacterial Biotransformation [17] | Bacterial Biotransformation [18] | Bacterial Biotransformation [19] | Bacterial Biotransformation [20] | Compound
1 | Compound NOT metabolized | Compound metabolized | Compound NOT metabolized | Compound metabolized | Compound metabolized | Compound NOT metabolized | Compound metabolized | Compound metabolized | Compound NOT metabolized | Compound metabolized | Compound metabolized | Compound metabolized | Compound metabolized | Compound NOT metabolized | Compound metabolized | Compound metabolized | Compound metabolized | Compound metabolized | Compound metabolized | Compound metabolized | NC(CO)(CO)CO.O=C(c1ccccc1)c1ccc2n1CCC2C(=O)O (stereo not given) [KETOROLAC TROMETHAMINE]
2 | Compound NOT metabolized | Compound NOT metabolized | Compound NOT metabolized | Compound NOT metabolized | Compound NOT metabolized | Compound metabolized | Compound NOT metabolized | Compound NOT metabolized | Compound NOT metabolized | Compound NOT metabolized | Compound NOT metabolized | Compound metabolized | Compound NOT metabolized | Compound metabolized | Compound metabolized | Compound NOT metabolized | Compound NOT metabolized | Compound NOT metabolized | Compound NOT metabolized | Compound NOT metabolized | CC[C@H](C)C(=O)O[C@H]1C[C@@H](C)C=C2C=C[C@H](C)[C@H](CC[C@@H]3C[C@@H](O)CC(=O)O3)[C@H]21 [LOVASTATIN]
3 | Compound NOT metabolized | Compound NOT metabolized | Compound NOT metabolized | Compound metabolized | Compound NOT metabolized | Compound NOT metabolized | Compound NOT metabolized | Compound NOT metabolized | Compound NOT metabolized | Compound NOT metabolized | Compound metabolized | Compound metabolized | Compound NOT metabolized | Compound NOT metabolized | Compound NOT metabolized | Compound NOT metabolized | Compound NOT metabolized | Compound NOT metabolized | Compound NOT metabolized | Compound NOT metabolized | CN1C(=O)CC(C)(c2ccccc2)C1=O (stereo not given) [METHSUXIMIDE]
4 | Compound NOT metabolized | Compound NOT metabolized | Compound NOT metabolized | Compound NOT metabolized | Compound NOT metabolized | Compound NOT metabolized | Compound NOT metabolized | Compound NOT metabolized | Compound NOT metabolized | Compound NOT metabolized | Compound NOT metabolized | Compound metabolized | Compound NOT metabolized | Compound NOT metabolized | Compound NOT metabolized | Compound NOT metabolized | Compound NOT metabolized | Compound NOT metabolized | Compound NOT metabolized | Compound NOT metabolized | COc1ccccc1N1CCN(CC(O)COc2cccc3ccccc23)CC1 (stereo not given) [NAFTOPIDIL]
5 | Compound NOT metabolized | Compound metabolized | Compound NOT metabolized | Compound metabolized | Compound metabolized | Compound metabolized | Compound metabolized | Compound metabolized | Compound NOT metabolized | Compound metabolized | Compound metabolized | Compound NOT metabolized | Compound metabolized | Compound NOT metabolized | Compound metabolized | Compound metabolized | Compound NOT metabolized | Compound metabolized | Compound metabolized | Compound metabolized | COc1ccc2[nH]c([S+]([O-])Cc3ncc(C)c(OC)c3C)nc2c1 (stereo not given) [OMEPRAZOLE]
6 | Compound NOT metabolized | Compound metabolized | Compound NOT metabolized | Compound metabolized | Compound metabolized | Compound metabolized | Compound metabolized | Compound metabolized | Compound NOT metabolized | Compound metabolized | Compound metabolized | Compound metabolized | Compound metabolized | Compound NOT metabolized | Compound metabolized | Compound metabolized | Compound metabolized | Compound metabolized | Compound metabolized | Compound metabolized | O=C(O)CCc1nc(-c2ccccc2)c(-c2ccccc2)o1 [OXAPROZIN]
7 | Compound NOT metabolized | Compound metabolized | Compound NOT metabolized | Compound metabolized | Compound metabolized | Compound NOT metabolized | Compound metabolized | Compound metabolized | Compound metabolized | Compound metabolized | Compound metabolized | Compound metabolized | Compound metabolized | Compound NOT metabolized | Compound metabolized | Compound metabolized | Compound metabolized | Compound metabolized | Compound metabolized | Compound metabolized | CC(C)(C)NC[C@H](O)COc1ccccc1C1CCCC1.CC(C)(C)NC[C@H](O)COc1ccccc1C1CCCC1.O=S(=O)(O)O [PENBUTOLOL SULFATE]
8 | Compound NOT metabolized | Compound NOT metabolized | Compound NOT metabolized | Compound NOT metabolized | Compound NOT metabolized | Compound NOT metabolized | Compound NOT metabolized | Compound NOT metabolized | Compound NOT metabolized | Compound NOT metabolized | Compound NOT metabolized | Compound NOT metabolized | Compound NOT metabolized | Compound NOT metabolized | Compound NOT metabolized | Compound NOT metabolized | Compound NOT metabolized | Compound NOT metabolized | Compound NOT metabolized | Compound NOT metabolized | CCOc1ccc(NC(C)=O)cc1 [PHENACETIN]
